Results reported in PMC11650361 (Archiv Der Pharmazie, 2024).
Like-named read-outs stand apart in the source and are kept apart here.

What was measured:
[1] = test system: porcine liver CES; experiment: In vitro CES inhibition (4-NPA substrate); type: biochemical; settings: % inhibition at 20 μM; n.a. = not active
Experimental: The esterase profile of the synthesized conjugates was determined. This included an assessment of their inhibition of cholinergic targets AChE and BChE along with a structurally related enzyme CES (EC 3.1.1.1), which hydrolyzes numerous ester‐containing drugs and is considered as an off‐target for anti‐AD agents.^[ [9], [40] ^] Human erythrocyte AChE, equine serum BChE, and porcine liver CES were used.^[ [40], [41], [42] ^]
Initially, we used a single concentration of 20 µM for all compounds.
^a All experiments were carried out in accordance with the standard protocols approved by IPAС RAS. Human erythrocyte AChE, equine serum BChE were purchased from Milamed (Perm, Russia). Porcine liver CES, substrates, and reference compounds were from Sigma-Aldrich (St. Louis, MO, USA). The activity of enzymes was measured spectrophotometrically, as described in detail in ^[1] using ATCh iodide, BTCh iodide, and 4-NPA as substrates for AChE, BChE, and CES, respectively. Experimental conditions: K,Na-phosphate buffer (100 mM), 25 °С, pH 7.5 for AChE and BChE and pH 8.0 for CES assay. Measurements were carried out on a FLUOStar Optima microplate reader (BMG Labtech, Ortenberg, Germany). Test compounds were dissolved in DMSO; final concentration of solvent in the incubation mixture was 2% (v/v).

[2] = ABTS radical cation scavenging activity assay; settings: for IC50: concentration reducing ABTS radical by 50%, 1 h; for ABTS^•+‐scavenging activity, TEAC: relative to Trolox, 1 h incubation, n.a. = inactive
Experimental: Data are given for 1 h of incubation of compounds with ABTS^•+. The AOA of the compounds was evaluated as Trolox equivalent antioxidant capacity (TEAC values) as the ratio of the slopes of the concentration–response curves, test compound/Trolox. All tests were performed at least in triplicate in three independent experiments. The IC50 values for the test compounds were also determined.

[3] = target: β‐amyloid (1–42) (Aβ42) (Homo sapiens, UniProt P05067); experiment: Inhibition of Aβ42 self-aggregation (thioflavin T fluorescence); type: biochemical; settings: for inhibition at 100 µM: read-out: Inhibition of Aβ42 self‐aggregation, %
Experimental: Inhibition of Aβ42 self‐aggregation by test compounds was studied using the ThT fluorescence method^[ [67], [68] ^] with minor modifications as described in detail in Makhaeva et al.^[ [16] ^] Lyophilized hexamfluoroisopropanol‐pretreated Aβ42 (GenicBio Limited, 1 mg) was dissolved in DMSO to obtain a stable 500 μM solution. […] Myricetin and propidium iodide in the same concentration were used as references. […] Each assay was run in triplicate.
^c The inhibitory effect of the test compounds toward Aβ42 self-aggregation was determined using the thioflavin T (ThT) fluorescence method ^[5-7] with minor modifications as described in detail in ^[8]. Lyophilized HFIP-pretreated Aβ42 from BACHEM (Bubendorf, Switzerland) was used. […] Myricetin and propidium iodide were used as reference compounds (positive controls). Analyses were performed with a FLUOStar Optima microplate reader (LabTech, Ortenberg, Germany). The inhibition (%) of Aβ42 self-aggregation by the test compounds was calculated by the following equation: […]
where IFi and IFo are the fluorescence intensities obtained for Aβ42 in the presence and in the absence of inhibitor, respectively, after subtracting the fluorescence of respective blanks.

[4] = test system: SH‐SY5Y (human neuroblastoma) cells; experiment: Cytotoxicity, MTT assay, SH-SY5Y; type: cell-based; settings: MTT, 24 h, mean ± SEM, n = 3, read-out: SH‐SY5Y IC50
[5] = test system: HepG2 cells (human hepatocellular carcinoma); experiment: Cytotoxicity, MTT assay, HepG2; type: cell-based; settings: HepG2, MTT, 24 h, mean ± SEM, n = 3, read-out: Hep G2 IC50
[6] = test system: HEK293T (human embryonic kidney) cells; experiment: Cytotoxicity, MTT assay, HEK293T; type: cell-based; settings: HEK-293T, MTT, 24 h, mean ± SEM, n = 3, read-out: HEK293T IC50
[7] = target: T1, human erythrocyte AChE (Homo sapiens, UniProt P22303); experiment: biochemical; type: biochemical; settings: for IC50: human erythrocyte AChE, mean ± SEM, n = 3
T1 construct: purchased Sigma-Aldrich; Milamed, Perm, Russia (supplement); host or cells: human erythrocytes

[8] = target: T2, PAS of Electrophorus electricus AChE (EeAChE) (Electrophorus electricus, UniProt O42275); type: binding; settings: 20 µM compound concentration
T2 construct: purchased Sigma-Aldrich type VI-S; host or cells: electric eel tissue
Experimental: The ability of the test compounds to competitively displace propidium was evaluated by the fluorescence method,^[ [65] ^] as described in detail in Makhaeva et al.^[ [66] ^] […] After 15 min of incubation of the test compounds at a concentration of 20 μM with a 7 μM solution of EeAChE in 1 mM Tris‐HCl buffer, pH 8.0, 25°C, propidium iodide (final concentration 8 μM) was added. Then, the solutions were incubated for 15 min and the fluorescence spectrum was recorded (530 nm (excitation) and 600 nm (emission)). […] Measurements were performed in triplicate on a FLUOStar Optima microplate reader (BMG LabTech).
The 7 μM EeAChE was incubated with the test compound at a concentration of 20 μM in 1 mM Tris-HCl buffer pH 8.0, 25 °C, for 15 min. After that, propidium iodide was added at final concentration of 8 μM. The samples were incubated for 15 min and the fluorescence spectrum (530 nm (excitation) and 600 nm (emission)) was taken. […] The measurements were carried out in triplicate on a FLUOStar Optima microplate reader. The degree of propidium displacement (% displacement) from the PAS of EeAChE was calculated by formula (1):
% Displacement = 100 – (IFAChE+ Propidium + inhibitor / IFAChE + Propidium) × 100 (1),
where IFAChE + Propidium is the fluorescence intensity of the propidium associated with AChE in the absence of the test compound (taken as 100%), and IFAChE + Propidium + inhibitor is the fluorescence intensity of the propidium associated with AChE in the presence of the test compound.

[9] = target: T3, equine serum BChE (Equus caballus, UniProt P81908); experiment: biochemical; settings: for IC50: equine serum BChE, mean ± SEM, n = 3
T3 construct: purchased Sigma-Aldrich; Milamed, Perm, Russia (supplement); host or cells: horse serum

[10] = target: T4, AChE (Homo sapiens, UniProt P22303); experiment: Kinetic study of AChE inhibition, steady-state inhibition constants; type: biochemical; settings: for αK i (noncompetitive inhibition constant), AChE / Ki: means ± SEM; for Ki: read-out: K i (competitive inhibition constant), AChE
T4 construct: purchased Sigma-Aldrich; Milamed, Perm, Russia (supplement); host or cells: human erythrocytes
Experimental: (§1) We assessed the mechanisms of AChE and BChE inhibition by performing a thorough analysis of enzyme kinetics. After a 5 min incubation at 25°C (for temperature equilibration) with three increasing concentrations of inhibitor and six decreasing substrate concentrations, the residual enzyme activity was measured as described above for enzymatic assays.

[11] = target: T5, eqBChE (Equus caballus, UniProt P81908); experiment: Kinetic study of BChE inhibition, steady-state inhibition constants; type: biochemical; settings: for αK i (noncompetitive inhibition constant), eqBChE / Ki: means ± SEM; for Ki: read-out: K i (competitive inhibition constant), eqBChE
T5 construct: purchased Sigma-Aldrich; Milamed, Perm, Russia (supplement); host or cells: horse serum
Experimental: as §1

T2 sequence (O42275 24-633): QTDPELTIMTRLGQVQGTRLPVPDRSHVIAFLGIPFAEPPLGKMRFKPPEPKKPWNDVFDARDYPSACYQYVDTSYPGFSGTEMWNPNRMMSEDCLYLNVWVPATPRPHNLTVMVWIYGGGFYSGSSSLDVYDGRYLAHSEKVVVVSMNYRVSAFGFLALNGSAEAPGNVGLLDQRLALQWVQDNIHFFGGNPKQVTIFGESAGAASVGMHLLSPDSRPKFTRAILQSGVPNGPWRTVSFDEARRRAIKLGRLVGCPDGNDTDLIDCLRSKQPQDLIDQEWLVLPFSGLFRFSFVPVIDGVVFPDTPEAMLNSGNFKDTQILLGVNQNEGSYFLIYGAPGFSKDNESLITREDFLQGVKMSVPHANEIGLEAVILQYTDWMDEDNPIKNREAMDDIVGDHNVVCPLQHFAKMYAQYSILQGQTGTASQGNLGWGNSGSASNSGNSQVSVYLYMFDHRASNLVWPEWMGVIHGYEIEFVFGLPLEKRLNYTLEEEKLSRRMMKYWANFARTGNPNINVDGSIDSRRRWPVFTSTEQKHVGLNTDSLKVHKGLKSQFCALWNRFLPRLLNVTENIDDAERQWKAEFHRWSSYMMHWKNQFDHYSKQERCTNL
Sequence of β‐amyloid (1–42) (Aβ42) (P05067 672-713 limits assumed): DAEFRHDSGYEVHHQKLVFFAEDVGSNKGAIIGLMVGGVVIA
T3 sequence (P81908 whole entry): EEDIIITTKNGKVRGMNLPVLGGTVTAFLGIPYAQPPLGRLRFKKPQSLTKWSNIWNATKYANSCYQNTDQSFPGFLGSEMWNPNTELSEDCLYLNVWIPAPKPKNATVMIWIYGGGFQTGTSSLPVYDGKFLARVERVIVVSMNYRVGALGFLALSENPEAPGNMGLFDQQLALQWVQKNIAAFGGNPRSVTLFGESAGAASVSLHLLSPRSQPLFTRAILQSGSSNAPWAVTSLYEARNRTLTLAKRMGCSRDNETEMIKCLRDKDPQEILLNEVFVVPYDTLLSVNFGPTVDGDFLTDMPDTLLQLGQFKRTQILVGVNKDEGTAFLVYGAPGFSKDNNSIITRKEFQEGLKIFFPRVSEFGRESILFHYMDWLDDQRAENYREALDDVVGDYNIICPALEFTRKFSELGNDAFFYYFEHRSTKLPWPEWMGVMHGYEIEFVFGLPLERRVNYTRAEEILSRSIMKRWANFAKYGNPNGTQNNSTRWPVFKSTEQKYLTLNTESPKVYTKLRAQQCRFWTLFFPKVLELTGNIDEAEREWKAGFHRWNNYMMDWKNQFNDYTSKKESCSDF
T5 sequence (P81908 whole entry): as above
T1 sequence (P22303 32-617 isoform P22303-2 limits assumed): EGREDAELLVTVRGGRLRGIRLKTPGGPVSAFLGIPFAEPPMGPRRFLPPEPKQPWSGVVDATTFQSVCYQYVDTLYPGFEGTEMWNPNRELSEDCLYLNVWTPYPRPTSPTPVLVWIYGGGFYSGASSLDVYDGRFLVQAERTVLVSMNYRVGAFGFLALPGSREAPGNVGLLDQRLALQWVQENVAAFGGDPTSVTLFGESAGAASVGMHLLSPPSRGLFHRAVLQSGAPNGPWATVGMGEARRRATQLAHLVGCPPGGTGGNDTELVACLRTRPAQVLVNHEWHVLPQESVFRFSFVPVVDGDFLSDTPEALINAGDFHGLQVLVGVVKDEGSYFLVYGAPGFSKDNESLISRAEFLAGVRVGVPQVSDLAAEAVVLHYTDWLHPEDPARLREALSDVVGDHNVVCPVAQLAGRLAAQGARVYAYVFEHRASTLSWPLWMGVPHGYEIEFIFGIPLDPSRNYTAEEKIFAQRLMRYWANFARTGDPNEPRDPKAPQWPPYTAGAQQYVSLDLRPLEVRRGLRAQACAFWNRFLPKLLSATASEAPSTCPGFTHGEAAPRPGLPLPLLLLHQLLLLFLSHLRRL
T4 sequence (P22303 32-617 isoform P22303-2 limits assumed): as above

## O=C(NCCCCNc1c2c(nc3c1CCC3)CCCC2)c1ccccc1O [7a, N‐{4‐[(2,3,5,6,7,8‐Hexahydro‐1H‐cyclopenta[b]quinolin‐9‐yl)amino]butyl}−2‐hydroxybenzamide]
[1]
  CES inhibition, %: 5.0 ± 0.1%
[2]
  IC50: 17.6 ± 0.8 µM
  ABTS^•+‐scavenging activity, TEAC: 0.97 ± 0.04
[3]; Aβ42 50 µM, compound 100 µM
  inhibition at 100 µM: 41.3 ± 3.3%
[4]
  IC50: 49.6 ± 3.7 µM
[5]
  IC50: 74.7 ± 3.4 µM
[6]
  IC50: 38.4 ± 3.6 µM
[7]
  IC50: 1.52 ± 0.14 µM
[8]
  Propidium displacement, %: 10.8 ± 0.8%
[9]
  Selectivity index IC50AChE/IC50BChE: 6.0
  IC50: 0.254 ± 0.023 µM

## O=C(NCCCCCCNc1c2c(nc3c1CCC3)CCCC2)c1ccccc1O [7b, N‐{6‐[(2,3,5,6,7,8‐Hexahydro‐1H‐cyclopenta[b]quinolin‐9‐yl)amino]hexyl}−2‐hydroxybenzamide]
[1]
  CES inhibition, %: 12.3 ± 1.2%
[2]
  IC50: 17.6 ± 0.7 µM
  ABTS^•+‐scavenging activity, TEAC: 0.98 ± 0.04
[3]; Aβ42 50 µM, compound 100 µM
  inhibition at 100 µM: 53.4 ± 4.2%
[7]
  IC50: 4.24 ± 0.08 µM
[10]
  αK i (noncompetitive inhibition constant), AChE: 6.25 ± 0.44 µM
  Ki: 2.6 ± 0.19 µM
[8]
  Propidium displacement, %: 11.6 ± 0.9%
[11]
  αK i (noncompetitive inhibition constant), eqBChE: 19.2 ± 0.9 nM
  Ki: 0.0142 ± 0.0011 µM
[9]
  Selectivity index IC50AChE/IC50BChE: 193
  IC50: 0.022 ± 0.001 µM

## Oc1ccccc1C=NCCCCCCNc1c2c(nc3c1CCC3)CCCC2 [9b, 2‐[({6‐[(2,3,5,6,7,8‐Hexahydro‐1H‐cyclopenta[b]quinolin‐9‐yl)amino]hexyl}imino)methyl]phenol]
[10]
  αK i (noncompetitive inhibition constant), AChE: 4.98 ± 0.33 µM
  Ki: 1.76 ± 0.12 µM
[11]
  αK i (noncompetitive inhibition constant), eqBChE: 89.0 ± 7.1 nM
  Ki: 0.0501 ± 0.0048 µM

## Oc1ccccc1CNCCCCCCNc1c2c(nc3c1CCC3)CCCC2 [10b, 2‐[({6‐[(2,3,5,6,7,8‐Hexahydro‐1H‐cyclopenta[b]quinolin‐9‐yl)amino]hexyl}amino)methyl]phenol]
[3]; Aβ42 50 µM, compound 100 µM
  inhibition at 100 µM: 79.2 ± 5.5%
[7]
  IC50: 1.19 ± 0.05 µM
[10]; Lineweaver–Burk analysis
  Type of AChE inhibition: mixed type of inhibition
[10]
  αK i (noncompetitive inhibition constant), AChE: 1.50 ± 0.03 µM
  Ki: 0.656 ± 0.011 µM
[11]; Lineweaver–Burk analysis
  Type of BChE inhibition: mixed type of inhibition
[11]
  αK i (noncompetitive inhibition constant), eqBChE: 45.4 ± 4.1 nM
  Ki: 0.021 ± 0.0006 µM
[9]
  IC50: 0.0294 ± 0.0006 µM

## O=[N+]([O-])c1ccc(OP(=O)(O)Oc2ccc([N+](=O)[O-])cc2)cc1 [BNPP, Bis‐4‐nitrophenyl phosphate, reference compound]
[3]; Aβ42 50 µM, compound 100 µM
  Inhibition of Aβ42 self‐aggregation, %: n.а.
[7]; 20 µM
  AChE inhibition, %: n.а.
[8]
  Propidium displacement, %: n.а.
[9]; 20 µM
  BChE inhibition, %: n.а.

## COc1cc2c(cc1OC)C(=O)C(CC1CCN(Cc3ccccc3)CC1)C2 (centres unmarked) [Donepezil, reference compound]
[1]
  CES inhibition, %: n.а.
[3]
  inhibition at 100 µM: 90.7 ± 7.1%

## O=c1c(O)c(-c2cc(O)c(O)c(O)c2)oc2cc(O)cc(O)c12 [Myricetin, reference compound]
[3]; Aβ42 50 µM, compound 100 µM
  inhibition at 100 µM: 79.4 ± 6.3%

## CC[N+](C)(CC)CCC[n+]1c(-c2ccccc2)c2cc(N)ccc2c2ccc(N)cc21.[I-].[I-] [Propidium iodide, reference compound]
[3]; Aβ42 50 µM, compound 100 µM
  Inhibition of Aβ42 self‐aggregation, %: 90.7 ± 7.1%

## O=C(O)c1ccccc1O [Salicylic acid, reference compound]
[1]
  CES inhibition, %: 8.9 ± 0.6%
[2]
  ABTS^•+‐scavenging activity, TEAC: did not show activity

## Cc1c(C)c2c(c(C)c1O)CCC(C)(C(=O)O)O2 (centres unmarked) [Trolox, 6-hydroxy-2,5,7,8-tetramethychroman-2-carboxylic acid, reference compound]
[2]
  IC50: 19.7 ± 1.4 µM
  ABTS^•+‐scavenging activity, TEAC: 1.0

## CCCCCCNc1c2c(nc3c1CCC3)CCCC2 [compound 11, N‐hexyl‐2,3,5,6,7,8‐hexahydro‐1H‐cyclopenta[b]quinolin‐9‐amine]
[1]
  CES inhibition, %: 5.6 ± 0.6%
[7]
  IC50: 4.3 ± 0.32 µM
[9]
  Selectivity index IC50AChE/IC50BChE: 16.4
  IC50: 0.262 ± 0.008 µM

## CCCCCCN=Cc1ccccc1O [compound 12, 2‐[(hexylimino)methyl]phenol]
[1]
  CES inhibition, %: 1.9 ± 0.1%
[2]
  IC50: 93.3 ± 4.1 µM
  ABTS^•+‐scavenging activity, TEAC: 0.15 ± 0.008
[7]; % inhibition at 20 μM, n.a. = not active
  AChE inhibition, %: n.а.
[9]
  inhibition at 20 µM: 10.6 ± 0.1%

## CCCCCCNCc1ccccc1O [compound 13, 2‐[(hexylamino)methyl]phenol]
[1]
  CES inhibition, %: 14.8 ± 0.5%
[2]
  IC50: 10.7 ± 0.4 µM
  ABTS^•+‐scavenging activity, TEAC: 1.52 ± 0.07
[7]
  inhibition at 20 µM: 14 ± 0.6%
[9]
  inhibition at 20 µM: 26.9 ± 0.5%
